Test results as given in patent publication US11180483B2, “Substituted reverse pyrimidine Bmi-1 inhibitors” (PTC Therapeutics, Inc., priority 2012, dated 2021).

Each compound was assayed on Bmi-1 (assay: Sandwich ELISA Assay (Bmi-1 ELISA) in HT-1080 cells).
Type: cell-based
In short: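 Bmi-1 in lysates was measured by a three-antibody ELISA with TMB, OD450 minus OD570 reference, interpolated on a GST-tagged recombinant Bmi-1 standard curve, 0-8000 pg/mL. Lysates came from HT-1080 cells treated 40-48 h with compound, final DMSO 0.5%.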

EC50	Structure (SMILES)
100 to 3000 nM	Cc1nc2ccc([N+](=O)[O-])cc2n1-c1nc(N)c(F)c(Nc2ccc(OC(F)F)cc2)n1 [Cpd 231, N-[4-(difluoromethoxy)phenyl]-5-fluoro-2-(2-methyl-6-nitro-1H-benzimidazol-1-yl)pyrimidine-4,6-diamine]
10 to 100 nM	Cc1ccc(Nc2nc(-n3c(C)nc4ccc([N+](=O)[O-])cc43)nc(N)c2F)cc1 [Cpd 232, 5-fluoro-2-(2-methyl-6-nitro-1H-benzimidazol-1-yl)-N-(4-methylphenyl)pyrimidine-4,6-diamine]
10 to 100 nM	COc1ccc(Nc2nc(-n3c(C)nc4ccc([N+](=O)[O-])cc43)nc(N)c2F)cc1 [Cpd 233, 5-fluoro-N-(4-methoxyphenyl)-2-(2-methyl-6-nitro-1H-benzimidazol-1-yl)pyrimidine-4,6-diamine]
10 to 100 nM	Cc1nc2ccccc2n1-c1nc(N)cc(Nc2ccc(OC(F)F)cc2)n1 [Cpd 234, N-[4-(difluoromethoxy)phenyl]-2-(2-methyl-1H-benzimidazol-1-yl)pyrimidine-4,6-diamine]
10 to 100 nM	Cc1nc2ccccc2n1-c1nc(N)cc(Nc2ccc(OC(F)F)c(F)c2)n1 [Cpd 235, N-[4-(difluoromethoxy)-3-fluorophenyl]-2-(2-methyl-1H-benzimidazol-1-yl)pyrimidine-4,6-diamine]
100 to 3000 nM	Cc1nc2ccc([N+](=O)[O-])cc2n1-c1nc(N)c(F)c(Nc2ccc(C(F)(F)F)cc2)n1 [Cpd 236, 5-fluoro-2-(2-methyl-6-nitro-1H-benzimidazol-1-yl)-N-[4-(trifluoromethyl)phenyl]pyrimidine-4,6-diamine]
10 to 100 nM	Cc1nc2c(F)cc(F)cc2n1-c1nc(N)c(F)c(Nc2ccc(Cl)cc2)n1 [Cpd 237, N-(4-chlorophenyl)-2-(4,6-difluoro-2-methyl-1H-benzimidazol-1-yl)-5-fluoropyrimidine-4,6-diamine]
100 to 3000 nM	Cc1nc2c(F)cc(F)cc2n1-c1nc(N)c(F)c(Nc2ccc(OC(F)(F)F)cc2)n1 [Cpd 238, 2-(4,6-difluoro-2-methyl-1H-benzimidazol-1-yl)-5-fluoro-N-[4-(trifluoromethoxy)phenyl]pyrimidine-4,6-diamine]
10 to 100 nM	COc1ccc(Nc2nc(-c3c(C)nn4ccccc34)nc(N)c2F)cc1 [Cpd 239, 5-fluoro-N-(4-methoxyphenyl)-2-(2-methylpyrazolo[1,5-a]pyridin-3-yl)pyrimidine-4,6-diamine]
1 to 10 nM	Cc1nc2c(F)cc(F)cc2n1-c1nc(N)c(F)c(Nc2ccc3c(c2)OCO3)n1 [Cpd 240, N-(1,3-benzodioxol-5-yl)-2-(4,6-difluoro-2-methyl-1H-benzimidazol-1-yl)-5-fluoropyrimidine-4,6-diamine]
10 to 100 nM	Cc1ccc(Nc2nc(-n3c(C)nc4c(F)cc(F)cc43)nc(N)c2F)cc1 [Cpd 241, 2-(4,6-difluoro-2-methyl-1H-benzimidazol-1-yl)-5-fluoro-N-(4-methylphenyl)pyrimidine-4,6-diamine]
1 to 10 nM	COc1ccc(Nc2nc(-n3c(C)nc4c(F)cc(F)cc43)nc(N)c2F)cc1 [Cpd 242, 2-(4,6-difluoro-2-methyl-1H-benzimidazol-1-yl)-5-fluoro-N-(4-methoxyphenyl)pyrimidine-4,6-diamine]
10 to 100 nM	Cc1nc2cc(F)cc(F)c2n1-c1nc(N)c(F)c(Nc2ccc(C(F)(F)F)cc2)n1 [Cpd 243, 2-(5,7-difluoro-2-methyl-1H-benzimidazol-1-yl)-5-fluoro-N-[4-(trifluoromethyl)phenyl]pyrimidine-4,6-diamine]
10 to 100 nM	COc1ccc2nc(C)n(-c3nc(N)c(F)c(Nc4ccc(C(F)(F)F)cc4)n3)c2c1 [Cpd 244, 5-fluoro-2-(6-methoxy-2-methyl-1H-benzimidazol-1-yl)-N-[4-(trifluoromethyl)phenyl]pyrimidine-4,6-diamine]
10 to 100 nM	COc1ccc2nc(C)n(-c3nc(N)c(F)c(Nc4ccc(Cl)cc4)n3)c2c1 [Cpd 245, N-(4-chlorophenyl)-5-fluoro-2-(6-methoxy-2-methyl-1H-benzimidazol-1-yl)pyrimidine-4,6-diamine]
10 to 100 nM	COc1ccc2nc(C)n(-c3nc(N)c(F)c(Nc4ccc(OC(F)(F)F)cc4)n3)c2c1 [Cpd 246, 5-fluoro-2-(6-methoxy-2-methyl-1H-benzimidazol-1-yl)-N-[4-(trifluoromethoxy)phenyl]pyrimidine-4,6-diamine]
10 to 100 nM	COc1ccc2nc(C)n(-c3nc(N)c(F)c(Nc4ccc(OC(F)F)cc4)n3)c2c1 [Cpd 247, N-[4-(difluoromethoxy)phenyl]-5-fluoro-2-(6-methoxy-2-methyl-1H-benzimidazol-1-yl)pyrimidine-4,6-diamine]
10 to 100 nM	COc1ccc2nc(C)n(-c3nc(N)c(F)c(Nc4ccc(C)cc4)n3)c2c1 [Cpd 248, 5-fluoro-2-(6-methoxy-2-methyl-1H-benzimidazol-1-yl)-N-(4-methylphenyl)pyrimidine-4,6-diamine]
10 to 100 nM	COc1ccc(Nc2nc(-n3c(C)nc4ccc(OC)cc43)nc(N)c2F)cc1 [Cpd 249, 5-fluoro-2-(6-methoxy-2-methyl-1H-benzimidazol-1-yl)-N-(4-methoxyphenyl)pyrimidine-4,6-diamine]

EC50	Structure (SMILES)
10 to 100 nM	COc1ccc2nc(C)n(-c3nc(N)c(F)c(Nc4ccc5c(c4)OCO5)n3)c2c1 [Cpd 250, N-(1,3-benzodioxol-5-yl)-5-fluoro-2-(6-methoxy-2-methyl-1H-benzimidazol-1-yl)pyrimidine-4,6-diamine]
10 to 100 nM	Cc1ccc(Nc2nc(-n3c(C)nc4cc([N+](=O)[O-])ccc43)nc(N)c2F)cc1 [Cpd 254, 5-fluoro-2-(2-methyl-5-nitro-1H-benzimidazol-1-yl)-N-(4-methylphenyl)pyrimidine-4,6-diamine]
100 to 3000 nM	COc1ccc(Nc2nc(-n3c(C)nc4cc([N+](=O)[O-])ccc43)nc(N)c2F)cc1 [Cpd 255, 5-fluoro-N-(4-methoxyphenyl)-2-(2-methyl-5-nitro-1H-benzimidazol-1-yl)pyrimidine-4,6-diamine]
10 to 100 nM	COc1ccc(Nc2nc(-n3c(C)nc4ccc(N)cc43)nc(N)c2F)cc1 [Cpd 256, 2-(6-amino-2-methyl-1H-benzimidazol-1-yl)-5-fluoro-N-(4-methoxyphenyl)pyrimidine-4,6-diamine]
10 to 100 nM	Cc1nc2ccc(N)cc2n1-c1nc(N)c(F)c(Nc2ccc(OC(F)F)cc2)n1 [Cpd 257, 2-(6-amino-2-methyl-1H-benzimidazol-1-yl)-N-[4-(difluoromethoxy)phenyl]-5-fluoropyrimidine-4,6-diamine]
1 to 10 nM	Cc1ccc(Nc2nc(-n3c(C)nc4ccc(N)cc43)nc(N)c2F)cc1 [Cpd 258, 2-(6-amino-2-methyl-1H-benzimidazol-1-yl)-5-fluoro-N-(4-methylphenyl)pyrimidine-4,6-diamine]
100 to 3000 nM	Cc1nc2cc(F)ccc2n1-c1nc(N)c(F)c(Nc2ccc(Cl)cc2)n1 [Cpd 259, N-(4-chlorophenyl)-5-fluoro-2-(5-fluoro-2-methyl-1H-benzimidazol-1-yl)pyrimidine-4,6-diamine]
100 to 3000 nM	Cc1nc2cc(F)ccc2n1-c1nc(N)c(F)c(Nc2ccc(Cl)c(F)c2)n1 [Cpd 260, N-(4-chloro-3-fluorophenyl)-5-fluoro-2-(5-fluoro-2-methyl-1H-benzimidazol-1-yl)pyrimidine-4,6-diamine]
10 to 100 nM	Cc1nc2ccccc2n1-c1nc(N)c(F)c(Nc2ccc(Cl)c(F)c2)n1 [Cpd 261, N-(4-chloro-3-fluorophenyl)-5-fluoro-2-(2-methyl-1H-benzimidazol-1-yl)pyrimidine-4,6-diamine]
10 to 100 nM	Cc1nc2ccc(F)cc2n1-c1nc(N)c(F)c(Nc2ccc(Cl)c(F)c2)n1 [Cpd 262, N-(4-chloro-3-fluorophenyl)-5-fluoro-2-(6-fluoro-2-methyl-1H-benzimidazol-1-yl)pyrimidine-4,6-diamine]
1 to 10 nM	Cc1ccc(Nc2cc(N)nc(-n3c(C)nc4ccc(F)cc43)n2)cc1 [Cpd 264, 2-(6-fluoro-2-methyl-1H-benzimidazol-1-yl)-N-(4-methylphenyl)pyrimidine-4,6-diamine]
1 to 10 nM	COc1ccc(Nc2cc(N)nc(-n3c(C)nc4ccc(F)cc43)n2)cc1 [Cpd 265, 2-(6-fluoro-2-methyl-1H-benzimidazol-1-yl)-N-(4-methoxyphenyl)pyrimidine-4,6-diamine]
1 to 10 nM	CCc1nc2ccccc2n1-c1nc(N)c(F)c(Nc2ccc(C)cc2)n1 [Cpd 270, 2-(2-ethyl-1H-benzimidazol-1-yl)-5-fluoro-N-(4-methylphenyl)pyrimidine-4,6-diamine]
1 to 10 nM	CCc1nc2ccccc2n1-c1nc(N)c(F)c(Nc2ccc(OC)cc2)n1 [Cpd 271, 2-(2-ethyl-1H-benzimidazol-1-yl)-5-fluoro-N-(4-methoxyphenyl)pyrimidine-4,6-diamine]
10 to 100 nM	CCc1nc2ccccc2n1-c1nc(N)c(F)c(Nc2ccc(OC(F)(F)F)cc2)n1 [Cpd 272, 2-(2-ethyl-1H-benzimidazol-1-yl)-5-fluoro-N-[4-(trifluoromethoxy)phenyl]pyrimidine-4,6-diamine]
1 to 10 nM	CCc1nc2ccccc2n1-c1nc(N)c(F)c(Nc2ccc3c(c2)OCO3)n1 [Cpd 273, N-(1,3-benzodioxol-5-yl)-2-(2-ethyl-1H-benzimidazol-1-yl)-5-fluoropyrimidine-4,6-diamine]
10 to 100 nM	CCc1nc2ccccc2n1-c1nc(N)c(F)c(Nc2ccc(Cl)cc2)n1 [Cpd 274, N-(4-chlorophenyl)-2-(2-ethyl-1H-benzimidazol-1-yl)-5-fluoropyrimidine-4,6-diamine]
10 to 100 nM	CCc1nc2ccccc2n1-c1nc(N)c(F)c(Nc2ccc(Cl)c(F)c2)n1 [Cpd 275, N-(4-chloro-3-fluorophenyl)-2-(2-ethyl-1H-benzimidazol-1-yl)-5-fluoropyrimidine-4,6-diamine]
1 to 10 nM	Cc1ccc(Nc2nc(-n3c(C4CC4)nc4ccccc43)nc(N)c2F)cc1 [Cpd 276, 2-(2-cyclopropyl-1H-benzimidazol-1-yl)-5-fluoro-N-(4-methylphenyl)pyrimidine-4,6-diamine]
